Earlier results, collected in article PMC6572293, “Antihypertensive Effects of Corn Silk Extract and Its Novel Bioactive Constituent in Spontaneously Hypertensive Rats: The Involvement of Angiotensin-Converting Enzyme Inhibition” (Molecules, 2019).

Conditions: from Coix glutelin; cited from earlier work
Text: Food peptides with anti-ACE activities have been identified from plants and animals. For example, oligopeptides FDGIP and AIDPVRA are ACE inhibitor derived from Caulerpa lentillifera. […] Peptides from auto-digested reishi (Ganoderma lingzhi) extract show potent inhibition against ACE and hypotensive activities in SHRs. Lacto-tr ...

GAAGGAF
Antihypertensive effect (in words): significant antihypertensive effect
